Measured values from PubChem BioAssay (NCI).
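Briefly, cells in 96-well plates were exposed to five compound concentrations for 48 h, and endpoints were estimated by linear interpolation. TGI: concentration producing complete growth inhibition.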

Assays:
Test in all cases: DTP human tumour cell line panel, 48 h
LOX IMVI melanoma = test system: LOX IMVI melanoma
CAKI-1 renal = test system: CAKI-1 renal
COLO 205 colon = test system: COLO 205 colon
ACHN renal = test system: ACHN renal
U251 CNS = test system: U251 CNS
SF-268 CNS = test system: SF-268 CNS
CCRF-CEM leukemia = test system: CCRF-CEM leukemia
HCT-15 colon = test system: HCT-15 colon
NCI-H226 lung = test system: NCI-H226 lung
IGROV1 ovarian = test system: IGROV1 ovarian
A498 renal = test system: A498 renal
MDA-N = test system: MDA-N
EKVX NSCLC = test system: EKVX NSCLC
MDA-MB-231 breast = test system: MDA-MB-231 breast
SF-295 CNS = test system: SF-295 CNS
SF-539 CNS = test system: SF-539 CNS
TK-10 renal = test system: TK-10 renal
DU-145 prostate = test system: DU-145 prostate
KM12 colon = test system: KM12 colon
MDA-MB-435 = test system: MDA-MB-435
HT29 colon = test system: HT29 colon
M14 melanoma = test system: M14 melanoma
MCF7 breast = test system: MCF7 breast
SK-OV-3 ovarian = test system: SK-OV-3 ovarian
MOLT-4 leukemia = test system: MOLT-4 leukemia
HL-60(TB) leukemia = test system: HL-60(TB) leukemia
A549 NSCLC = test system: A549 NSCLC
SNB-19 CNS = test system: SNB-19 CNS
SK-MEL-28 melanoma = test system: SK-MEL-28 melanoma
UO-31 renal = test system: UO-31 renal
HS 578T breast = test system: HS 578T breast
SW-620 colon = test system: SW-620 colon
OVCAR-4 ovarian = test system: OVCAR-4 ovarian
NCI-H522 lung = test system: NCI-H522 lung
NCI-H23 lung = test system: NCI-H23 lung
PC-3 prostate = test system: PC-3 prostate
OVCAR-5 ovarian = test system: OVCAR-5 ovarian
RXF 393 renal = test system: RXF 393 renal
NCI/ADR-RES ovarian = test system: NCI/ADR-RES ovarian
SK-MEL-2 melanoma = test system: SK-MEL-2 melanoma
BT-549 breast = test system: BT-549 breast
UACC-62 melanoma = test system: UACC-62 melanoma
OVCAR-8 ovarian = test system: OVCAR-8 ovarian
SK-MEL-5 melanoma = test system: SK-MEL-5 melanoma
786-0 renal = test system: 786-0 renal
UACC-257 melanoma = test system: UACC-257 melanoma
SN12C renal = test system: SN12C renal
HOP-62 NSCLC = test system: HOP-62 NSCLC
SNB-75 CNS = test system: SNB-75 CNS
MALME-3M melanoma = test system: MALME-3M melanoma
HCT-116 colon = test system: HCT-116 colon
T-47D breast = test system: T-47D breast

Measured: TGI

CNc1ccc(N)cc1C(=O)N1CCC[C@H]1CO
> 100 µM: all assays above
